Here are results for four compounds from patent US11224243B2, “Taste-modifying combinations” (FIRMENICH SA, priority 2012, dated 2022).

The test system of assay [1] is umami taste. As to the kind of experiment: Umami intensity and liking of amide 1, an ingredient and their blend in hot mineral water, trained panel. Type of assay: in vivo, human. How it is done: Pat. No. 7,807,206 (containing Rebaudioside A and stevioside), sea salt, succinic acid, yeast extract, hydrolyzed corn protein, or hydrolyzed wheat gluten) and a blend of the amide with the ingredient were weighed and hot mineral water was added to each sample according to the dosages indicated in each experiments. The samples were stirred in order to ensure the solubilisation of the ingredients. Each sample was coded, and tasted in a random order by 5 trained panelists. […] The panelists were also asked to describe the samples.

For assay [2], the system named is umami taste. Put plainly: Evaluation of amides 1 and 4 in a pork flavor, trained panel. The class given is in vivo, human. As to conditions: amide at 20 ppm in pork flavor; scale 0 to 10; 5 panelists; pork flavor alone = 4.5. The method, then: 3) Evaluation of Amides 1 and 4 in a Pork Flavor
Amides 1 and 4 were evaluated at 20 ppm by 5 trained panelists in a pork flavor on a blind test basis as described above.

Where [3] appears, read: Table 10, scale 1-10, MSG 0.04%, Amide 1 20 ppm, glucosylated stevosides 8 ppm, blend 20 ppm + 8 ppm.
Setting [4] is: Table 11, scale 1-10, MSG 0.04%, Amide 1 20 ppm, Sea Salt 0.03%, blend 20 ppm + 0.03%.
Setting [5] is: Table 12, scale 1-10, MSG 0.04%, Amide 1 20 ppm, Succinic acid 36 ppm, blend 20 ppm + 36 ppm.
Setting [6] is: Table 13, scale 1-10, MSG 0.04%, Amide 1 20 ppm, Yeast extract 60 ppm, blend 20 ppm + 60 ppm.
The mark [7] stands for this setting: Table 14, scale 1-10, MSG 0.04%, Amide 1 20 ppm, Yeast extract 175 ppm, blend 20 ppm + 175 ppm.
The mark [8] stands for this setting: Table 15, scale 1-10, MSG 0.04%, Amide 1 10 ppm, Yeast extract 60 ppm, blend 10 ppm + 60 ppm.
Setting [9] is: Table 16, scale 1-10, MSG 0.04%, Amide 1 20 ppm, Hydrolized corn protein 40 ppm, blend 20 ppm + 40 ppm.
[10] abbreviates: Table 17, scale 1-10, MSG 0.04%, Amide 1 20 ppm, Hydrolized corn protein 320 ppm, blend 20 ppm + 320 ppm.
[11] abbreviates: Table 18, scale 1-10, MSG 0.04%, Amide 1 20 ppm, Hydrolized wheat gluten 100 ppm, blend 20 ppm + 100 ppm.
Where [12] appears, read: Table 19, scale 1-10, MSG 0.04%, Amide 1 10 ppm, Nature Pep 971481 100 ppm, blend 10 ppm + 100 ppm.

On to `COc1ccc(CCNC(=O)/C=C/c2ccc(OC)c(OC)c2)cc1` [Amide 1, (E)-3-(3,4-dimethoxyphenyl)-N-(4-methoxyphenethyl)acrylamide], for which the Umami is given as 4.8 in the assay with umami taste [1] (setting [3]); 3.3 with umami taste [1] (setting [4]); 3.7 with umami taste [1] (setting [5]); 4.5 in the assay on umami taste [1] (setting [6]); 4.5 with umami taste [1] (setting [7]); 2.5 in the assay with umami taste [1] (setting [8]). Further, the Umami with umami taste [1] (setting [9]) worked out at 4.2; in the assay on umami taste [1] (setting [10]) it was 1.7; in the assay with umami taste [1] (setting [11]) it was 4.0; in the assay with umami taste [1] (setting [12]), 3.7. The compound also had a Umami intensity with umami taste [2] of 6.
In the case of `COc1cccc(CCNC(=O)/C=C/c2ccc(OC)c(OC)c2)c1` [Amide 4, (E)-3-(3,4-dimethoxyphenyl)-N-(3-methoxyphenethyl)acrylamide], the Umami intensity with umami taste [2] came out at 7.
`N[C@@H](CCC(=O)O)C(=O)[O-].[Na+]` [MSG, monosodium glutamate, reference compound]: the Umami worked out at 5.8 with umami taste [1] (setting [3]); 5.8 in the assay on umami taste [1] (setting [4]); 4.2 in the assay with umami taste [1] (setting [5]); 5.5 in the assay with umami taste [1] (setting [6]); 5.5 with umami taste [1] (setting [7]); 4.0 with umami taste [1] (setting [8]). The Umami in the assay with umami taste [1] (setting [9]) is listed as 5.4; in the assay on umami taste [1] (setting [10]) it was 3.0; with umami taste [1] (setting [11]), 5.5; in the assay on umami taste [1] (setting [12]), 7.2.
As to `O=C(O)CCC(=O)O` [Succinic acid, succinic acid], the Umami with umami taste [1] (setting [5]) amounted to 1.0.
